Results on 1 molecule are retold here after patent publication US9156762B2, “4,4-bis[(ethenyloxy)methyl]cyclohexene and method for producing same” (Nippon Carbide Industries Co., Inc., priority 2011, dated 2015).

The data set in a line: skin irritability (stated in words, no method described). To be noted: the vinyl ether itself.

Each structure is given as a SMILES string.

Take `C=COCC1(COC=C)CC=CCC1` [4,4-bis[(ethenyloxy)methyl]cyclohexene]: the skin irritability result is reported as “low”.
